Assay results taken from patent publication US20080039515A1, “Arylpyrazoles And Methods Of Using Same For Control Of Insect Pests That Bore Into Trees” (The Texas A&M University System, priority 2004, published 2008).
Read-outs that look alike come from different tables or passages of the source.

Tested on: Ips engravers beetles
Type: in vivo
Method: Study Sites: Two 20-year-old, recently thinned loblolly pine plantations were selected in Texas. Trees in one plantation were injected for use in a bolt study (Trial 1). Trees in ½ acre section of the second plantation were injected as part of a single-tree protection study (Trial 2). A staging area also was set up in the second plantation where bolts from the first plantation were exposed to bark beetles and wood borers.
Population Monitoring: A clear panel of acetate (10 cm wide by 25 cm long) was attached to the center of each bolt after deployment of bolts or 2 m high on standing trees after deployment of pheromone baits to monitor arrival of bark beetles. The top surface of each panel was coated entirely with Stikem Special® trapping compound (Michel and Pelton, Emeryville, Calif.). The traps were left in place for two weeks.
After 1 (May 24), 3 (July 19) and 5 (September) months post-injection, 5 trees of each treatment were felled and two 1.5 m long bolts were removed from the 3 m and 8 m heights of the bole. Because southern pine beetle (SPB) populations were extremely low in east Texas during the study year, Ips engravers were used as alternative bark beetles for this study. The bolts were transported to a 20-year-old loblolly plantation that was recently thinned and contained fresh slash material. Each bolt was placed about 1 m apart on discarded, dry pine bolts to maximize surface area available for colonization as well as to discourage predation by ground and litter-inhabiting organisms. To facilitate timely bark beetle colonization, packets of bark beetle pheromones (racemic ipsdienol +lanerione combination, ipsenol or cis-verbenol; Phero Tech, Inc., Delta, BC, Canada) were attached separately to three 1 m stakes evenly spaced in the study area. Racemic ipsdienol and cis-verbenol were used with the second series of bolts deployed in July. The packets were removed after 2 weeks when signs of attacks (boring dust) were observed on most test bolts, signaling that naturally-produced pheromones were present.
Treatment Evaluation: Trial 1. The first and second series of bolts were retrieved 2.5 and 3 weeks, respectively, after deployment, after observing many cerambycid attacks on most of the bolts. In the laboratory, two 10×50 cm strips (total=1000 cm^2) of bark were removed from each bolt. Several measurements were made relating to construction of nuptial chambers and egg galleries and development of brood: • 1. Number of unsuccessful attacks—penetration to phloem, but no egg galleries. • 2. Number of successful attacks—construction of nuptial chamber and at least one egg gallery extending from it. • 3. Number and lengths of egg galleries with brood galleries radiating from them. • 4. Number and lengths of egg galleries without brood galleries. • 5. Cerambycid activity, estimated by overlaying a 100 cm^2 grid over a portion of each bark strip and counting the number of squares overlapping area where cerambycids had fed.
Treatment efficacy was determined by comparing Ips beetle attacks and egg gallery length and cerambycid feeding on treated and untreated bolts. The data were transformed by log10(x+1) to satisfy criteria for normality and homoscedasticity (Zar 1984) and analyzed by GLM and the Fishers Protected LSD test using the Statview statistical program.

[1] = 1 month post-injection (May), bolt height 3 m
[2] = 1 month post-injection (May), bolt height 8 m
[3] = 3 months post-injection (July), bolt height 3 m
[4] = 3 months post-injection (July), bolt height 8 m
[5] = 3 months post-injection, bolt height 3 m
[6] = 3 months post-injection, bolt height 8 m
[7] = 5 months post-injection (Sept.), bolt height 3 m
[8] = 5 months post-injection (Sept.), bolt height 8 m

O=[N+]([O-])NC1=NCCN1Cc1ccc(Cl)nc1 [Imid]
Length of Egg Galleries Total [1]: 442.2
Length of Egg Galleries With Brood [1]: 283.2 cm
Length of Egg Galleries With Brood % of Total [1]: 64.0%
Length of Egg Galleries Without Brood [1]: 159.0 cm
Length of Egg Galleries Without Brood % of Total [1]: 36.0%
Mean # of Ips caught/trap [1]: 5.6
Number of Egg Galleries Total [1]: 65.2
Number of Egg Galleries With Brood % of Total [1]: 46.0%
Number of Egg Galleries With Brood No. [1]: 30.0
Number of Egg Galleries Without Brood % of Total [1]: 54.0%
Number of Egg Galleries Without Brood No. [1]: 35.2
Nuptial Chambers Total [1]: 18.2
Nuptial Chambers With Egg Galleries % of Total [1]: 89.0%
Nuptial Chambers With Egg Galleries No. [1]: 16.2
Nuptial Chambers Without Egg Galleries % of Total [1]: 11.0%
Nuptial Chambers Without Egg Galleries No. [1]: 2.0
Length of Egg Galleries Total [2]: 315.8
Length of Egg Galleries With Brood [2]: 197.0 cm
Length of Egg Galleries With Brood % of Total [2]: 62.4%
Length of Egg Galleries Without Brood [2]: 118.8 cm
Length of Egg Galleries Without Brood % of Total [2]: 37.6%
Mean # of Ips caught/trap [2]: 3.8
Number of Egg Galleries Total [2]: 49.0
Number of Egg Galleries With Brood % of Total [2]: 39.6%
Number of Egg Galleries With Brood No. [2]: 19.4
Number of Egg Galleries Without Brood % of Total [2]: 60.4%
Number of Egg Galleries Without Brood No. [2]: 29.6
Nuptial Chambers Total [2]: 15.8
Nuptial Chambers With Egg Galleries % of Total [2]: 81.0%
Nuptial Chambers With Egg Galleries No. [2]: 12.8
Nuptial Chambers Without Egg Galleries % of Total [2]: 19.0%
Nuptial Chambers Without Egg Galleries No. [2]: 3.0
Mean # of Ips caught/trap [3]: 2.6
Nuptial Chambers Total [3]: 10.8
Nuptial Chambers With Egg Galleries % of Total [3]: 61.1%
Nuptial Chambers With Egg Galleries No. [3]: 6.6
Nuptial Chambers Without Egg Galleries % of Total [3]: 38.9%
Nuptial Chambers Without Egg Galleries No. [3]: 4.2
Mean # of Ips caught/trap [4]: 2.0
Nuptial Chambers Total [4]: 9.4
Nuptial Chambers With Egg Galleries % of Total [4]: 59.6%
Nuptial Chambers With Egg Galleries No. [4]: 5.6
Nuptial Chambers Without Egg Galleries % of Total [4]: 40.4%
Nuptial Chambers Without Egg Galleries No. [4]: 3.8
Length of Egg Galleries Total [5]: 187.4
Length of Egg Galleries With Brood [5]: 151.4 cm
Length of Egg Galleries With Brood % of Total [5]: 80.8%
Length of Egg Galleries Without Brood [5]: 36.0 cm
Length of Egg Galleries Without Brood % of Total [5]: 19.2%
Number of Egg Galleries Total [5]: 20.6
Number of Egg Galleries With Brood % of Total [5]: 68.9%
Number of Egg Galleries With Brood No. [5]: 14.2
Number of Egg Galleries Without Brood % of Total [5]: 31.1%
Number of Egg Galleries Without Brood No. [5]: 6.4
Length of Egg Galleries Total [6]: 130.0
Length of Egg Galleries With Brood [6]: 87.4 cm
Length of Egg Galleries With Brood % of Total [6]: 67.2%
Length of Egg Galleries Without Brood [6]: 42.6 cm
Length of Egg Galleries Without Brood % of Total [6]: 32.8%
Number of Egg Galleries Total [6]: 17.4
Number of Egg Galleries With Brood % of Total [6]: 52.9%
Number of Egg Galleries With Brood No. [6]: 9.2
Number of Egg Galleries Without Brood % of Total [6]: 47.1%
Number of Egg Galleries Without Brood No. [6]: 8.2
Length of Egg Galleries Total [7]: 163.4
Length of Egg Galleries With Brood [7]: 154.2 cm
Length of Egg Galleries With Brood % of Total [7]: 94.4%
Length of Egg Galleries Without Brood [7]: 9.2 cm
Length of Egg Galleries Without Brood % of Total [7]: 5.6%
Mean # of Ips caught/trap [7]: 1.6
Number of Egg Galleries Total [7]: 13.2
Number of Egg Galleries With Brood % of Total [7]: 89.4%
Number of Egg Galleries With Brood No. [7]: 11.8
Number of Egg Galleries Without Brood % of Total [7]: 10.6%
Number of Egg Galleries Without Brood No. [7]: 1.4
Nuptial Chambers Total [7]: 4.6
Nuptial Chambers With Egg Galleries % of Total [7]: 95.7%
Nuptial Chambers With Egg Galleries No. [7]: 4.4
Nuptial Chambers Without Egg Galleries % of Total [7]: 4.3%
Nuptial Chambers Without Egg Galleries No. [7]: 0.2
Length of Egg Galleries Total [8]: 164.4
Length of Egg Galleries With Brood [8]: 144.8 cm
Length of Egg Galleries With Brood % of Total [8]: 88.1%
Length of Egg Galleries Without Brood [8]: 19.6 cm
Length of Egg Galleries Without Brood % of Total [8]: 11.9%
Mean # of Ips caught/trap [8]: 1.5
Number of Egg Galleries Total [8]: 18.0
Number of Egg Galleries With Brood % of Total [8]: 81.1%
Number of Egg Galleries With Brood No. [8]: 14.6
Number of Egg Galleries Without Brood % of Total [8]: 18.9%
Number of Egg Galleries Without Brood No. [8]: 3.4
Nuptial Chambers Total [8]: 7.2
Nuptial Chambers With Egg Galleries % of Total [8]: 69.4%
Nuptial Chambers With Egg Galleries No. [8]: 5.0
Nuptial Chambers Without Egg Galleries % of Total [8]: 30.6%
Nuptial Chambers Without Egg Galleries No. [8]: 2.2
